In article PMC5797143, “Epigenetic modulation of inflammation and synaptic plasticity promotes resilience against stress in mice” (Nature Communications, 2018):

What was measured:
[1] = Brain homogenate stability; assay type: in vitro ADME
Method: Compound stability in mouse and human plasma and in mouse brain homogenate were conducted, [45]. Specifically, Mal-gluc or DHCA was incubated in duplicate with plasma at 37 °C and samples were taken at various time points and mixed with three volumes of ice-cold Stop Solution (methanol containing propranolol, diclofenac, or other internal standard). Samples were centrifuged to remove precipitated protein, and the supernatants were analyzed by LC/MS/MS to quantitate for remaining test compound. Data are converted to percentage remaining by dividing by the time zero concentration value. Data are fit to a first-order decay model to determine half-life. Plasma protein binding were conducted using both mouse and human plasma.

[2] = target: T1, 5-HT1D (serotonin receptor) (Homo sapiens, UniProt P28221); test: Radioligand binding assay; conditions: for Binding activity, 5-HT1D (percentage): 10 µM, HEK membrane fractions, quadruplicate
T1 construct: expressed in transfected cells; crude membrane fractions
Method: (§1) Radioligand binding assays were performed as previously described. Briefly, crude membrane fractions prepared from a stable HEK cell line expressing recombinant receptors were mixed with a radiolabeled specific ligand and 10 µM of competitor compound (DHCA, Mal-gluc, or non-specific ligand). The percentage of radioligand binding was subsequently measured.

[3] = target: T2, 5-HT2A (serotonin receptor) (Homo sapiens, UniProt P28223); test: Radioligand binding assay; conditions: 10 µM; HEK membrane fractions; quadruplicate
T2 construct: purchased NIMH Psychoactive Drug Screening Program (PDSP)
Method: as §1

[4] = target: T3, 5-HT2C (serotonin receptor) (Homo sapiens, UniProt P28335); test: Radioligand binding assay; conditions: 10 µM; HEK membrane fractions; quadruplicate
T3 construct: purchased NIMH Psychoactive Drug Screening Program (PDSP)
Method: as §1

[5] = target: T4, 5-HT3 (serotonin receptor) (Homo sapiens, UniProt P46098); test: Radioligand binding assay; conditions: for Binding activity, 5-HT3 (percentage): 10 µM, HEK membrane fractions, quadruplicate
T4 construct: expressed in transfected cells; crude membrane fractions
T4 sequence (P46098 24-478): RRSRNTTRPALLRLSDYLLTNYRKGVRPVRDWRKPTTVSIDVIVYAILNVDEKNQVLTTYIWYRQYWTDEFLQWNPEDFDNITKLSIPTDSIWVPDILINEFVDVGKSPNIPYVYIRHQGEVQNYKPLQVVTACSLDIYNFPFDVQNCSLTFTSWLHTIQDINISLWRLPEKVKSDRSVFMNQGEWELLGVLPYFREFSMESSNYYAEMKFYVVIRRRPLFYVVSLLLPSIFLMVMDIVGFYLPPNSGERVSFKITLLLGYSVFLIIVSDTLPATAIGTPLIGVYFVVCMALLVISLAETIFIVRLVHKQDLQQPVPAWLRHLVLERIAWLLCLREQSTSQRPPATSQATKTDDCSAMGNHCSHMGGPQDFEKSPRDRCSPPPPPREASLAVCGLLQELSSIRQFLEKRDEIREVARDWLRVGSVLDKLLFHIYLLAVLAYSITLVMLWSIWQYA
Method: as §1

[6] = target: T5, 5-HT6 (serotonin receptor) (Homo sapiens, UniProt P50406); test: Radioligand binding assay; conditions: 10 µM; HEK membrane fractions; quadruplicate
T5 construct: purchased NIMH Psychoactive Drug Screening Program (PDSP)
Method: as §1

[7] = target: T6, 5-HT7 (serotonin receptor) (Homo sapiens, UniProt P34969); test: Radioligand binding assay; conditions: 10 µM; HEK membrane fractions; quadruplicate
T6 construct: purchased NIMH Psychoactive Drug Screening Program (PDSP)
Method: as §1

[8] = target: T7, 5-hT1e (serotonin receptor) (Homo sapiens, UniProt P28566); test: Radioligand binding assay; conditions: 10 µM; HEK membrane fractions; quadruplicate
T7 construct: purchased NIMH Psychoactive Drug Screening Program (PDSP)
Method: as §1

[9] = target: T8, 5-hT5a (serotonin receptor) (Homo sapiens, UniProt P47898); test: Radioligand binding assay; conditions: 10 µM; HEK membrane fractions; quadruplicate
T8 construct: purchased NIMH Psychoactive Drug Screening Program (PDSP)
Method: as §1

[10] = target: T9, Alpha1A (alpha adrenergic receptor) (Homo sapiens, UniProt P35348); test: Radioligand binding assay; conditions: 10 µM; HEK membrane fractions; quadruplicate
T9 construct: purchased NIMH Psychoactive Drug Screening Program (PDSP)
Method: as §1

[11] = target: T10, Alpha1D (alpha adrenergic receptor) (Homo sapiens, UniProt P25100); test: Radioligand binding assay; conditions: 10 µM; HEK membrane fractions; quadruplicate
T10 construct: purchased NIMH Psychoactive Drug Screening Program (PDSP)
Method: as §1

[12] = target: T11, Alpha2B (alpha adrenergic receptor) (Homo sapiens, UniProt P18089); test: Radioligand binding assay; conditions: 10 µM; HEK membrane fractions; quadruplicate
T11 construct: purchased NIMH Psychoactive Drug Screening Program (PDSP)
Method: as §1

[13] = system: BZP RBS (rat brain benzylpiperazine site); test: Radioligand binding assay; conditions: 10 µM; quadruplicate
Method: as §1

[14] = target: T12, Beta2 (beta adrenergic receptor) (Homo sapiens, UniProt P07550); test: Radioligand binding assay; conditions: 10 µM; HEK membrane fractions; quadruplicate
T12 construct: purchased NIMH Psychoactive Drug Screening Program (PDSP)
Method: as §1

[15] = target: T13, Beta3 (beta adrenergic receptor) (Homo sapiens, UniProt P13945); test: Radioligand binding assay; conditions: 10 µM; HEK membrane fractions; quadruplicate
T13 construct: purchased NIMH Psychoactive Drug Screening Program (PDSP)
Method: as §1

D2 (dopamine receptor) = target: T14, D2 (dopamine receptor) (Homo sapiens, UniProt P14416); test: Radioligand binding assay; conditions: 10 µM; HEK membrane fractions; quadruplicate
T14 construct: purchased NIMH Psychoactive Drug Screening Program (PDSP)
Method: as §1

D4 (dopamine receptor) = target: T15, D4 (dopamine receptor) (Homo sapiens, UniProt P21917); test: Radioligand binding assay; conditions: 10 µM; HEK membrane fractions; quadruplicate
T15 construct: purchased NIMH Psychoactive Drug Screening Program (PDSP)
Method: as §1

[16] = target: T16, DAT (dopamine transporter) (Homo sapiens, UniProt Q01959); test: Radioligand binding assay; conditions: 10 µM; HEK membrane fractions; quadruplicate
T16 construct: purchased NIMH Psychoactive Drug Screening Program (PDSP)
Method: as §1

M3 (muscarinic receptor) = target: T17, M3 (muscarinic receptor) (Homo sapiens, UniProt P20309); test: Radioligand binding assay; conditions: 10 µM; HEK membrane fractions; quadruplicate
T17 construct: purchased NIMH Psychoactive Drug Screening Program (PDSP)
Method: as §1

M4 (muscarinic receptor) = target: T18, M4 (muscarinic receptor) (Homo sapiens, UniProt P08173); test: Radioligand binding assay; conditions: 10 µM; HEK membrane fractions; quadruplicate
T18 construct: purchased NIMH Psychoactive Drug Screening Program (PDSP)
Method: as §1

M5 (muscarinic receptor) = target: T19, M5 (muscarinic receptor) (Homo sapiens, UniProt P08912); test: Radioligand binding assay; conditions: 10 µM; HEK membrane fractions; quadruplicate
T19 construct: purchased NIMH Psychoactive Drug Screening Program (PDSP)
Method: as §1

MOR (µ-opioid receptor) = target: T20, MOR (µ-opioid receptor) (Homo sapiens, UniProt P35372); test: Radioligand binding assay; conditions: 10 µM; HEK membrane fractions; quadruplicate
T20 construct: purchased NIMH Psychoactive Drug Screening Program (PDSP)
Method: as §1

[17] = target: T21, NET (norepinephrine transporter) (Homo sapiens, UniProt P23975); test: Radioligand binding assay; conditions: 10 µM; HEK membrane fractions; quadruplicate
T21 construct: purchased NIMH Psychoactive Drug Screening Program (PDSP)
Method: as §1

T1 sequence (P28221 whole entry, species assumed): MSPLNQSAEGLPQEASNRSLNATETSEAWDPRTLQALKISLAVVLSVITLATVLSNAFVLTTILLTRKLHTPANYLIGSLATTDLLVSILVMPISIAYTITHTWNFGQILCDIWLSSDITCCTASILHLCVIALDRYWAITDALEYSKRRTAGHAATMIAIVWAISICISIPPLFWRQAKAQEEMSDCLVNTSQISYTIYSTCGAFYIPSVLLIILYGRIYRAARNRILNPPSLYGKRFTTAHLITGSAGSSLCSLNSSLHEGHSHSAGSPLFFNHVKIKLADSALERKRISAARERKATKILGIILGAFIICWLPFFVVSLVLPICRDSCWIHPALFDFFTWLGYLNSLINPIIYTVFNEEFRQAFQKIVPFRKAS
T7 sequence (P28566 whole entry): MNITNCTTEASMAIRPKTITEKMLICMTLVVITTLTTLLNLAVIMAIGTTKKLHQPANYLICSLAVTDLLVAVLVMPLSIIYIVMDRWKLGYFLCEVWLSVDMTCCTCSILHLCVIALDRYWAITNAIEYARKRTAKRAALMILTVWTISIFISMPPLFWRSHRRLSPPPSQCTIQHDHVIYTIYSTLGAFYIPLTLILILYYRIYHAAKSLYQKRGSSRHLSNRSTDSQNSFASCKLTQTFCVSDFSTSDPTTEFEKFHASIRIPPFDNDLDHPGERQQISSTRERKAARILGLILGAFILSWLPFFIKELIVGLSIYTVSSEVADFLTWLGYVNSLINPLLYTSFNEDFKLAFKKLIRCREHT
T20 sequence (P35372 whole entry): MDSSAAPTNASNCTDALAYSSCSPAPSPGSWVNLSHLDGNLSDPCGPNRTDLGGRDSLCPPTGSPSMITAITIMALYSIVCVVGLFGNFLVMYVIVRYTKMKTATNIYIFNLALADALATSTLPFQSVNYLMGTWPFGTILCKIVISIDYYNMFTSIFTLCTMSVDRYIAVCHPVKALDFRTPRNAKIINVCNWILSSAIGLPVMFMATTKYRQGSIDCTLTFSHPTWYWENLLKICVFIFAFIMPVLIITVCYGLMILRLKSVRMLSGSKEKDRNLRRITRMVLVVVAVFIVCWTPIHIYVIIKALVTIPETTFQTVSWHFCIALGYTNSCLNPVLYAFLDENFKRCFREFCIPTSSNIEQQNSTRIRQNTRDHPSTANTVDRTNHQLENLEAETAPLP
T16 sequence (Q01959 whole entry): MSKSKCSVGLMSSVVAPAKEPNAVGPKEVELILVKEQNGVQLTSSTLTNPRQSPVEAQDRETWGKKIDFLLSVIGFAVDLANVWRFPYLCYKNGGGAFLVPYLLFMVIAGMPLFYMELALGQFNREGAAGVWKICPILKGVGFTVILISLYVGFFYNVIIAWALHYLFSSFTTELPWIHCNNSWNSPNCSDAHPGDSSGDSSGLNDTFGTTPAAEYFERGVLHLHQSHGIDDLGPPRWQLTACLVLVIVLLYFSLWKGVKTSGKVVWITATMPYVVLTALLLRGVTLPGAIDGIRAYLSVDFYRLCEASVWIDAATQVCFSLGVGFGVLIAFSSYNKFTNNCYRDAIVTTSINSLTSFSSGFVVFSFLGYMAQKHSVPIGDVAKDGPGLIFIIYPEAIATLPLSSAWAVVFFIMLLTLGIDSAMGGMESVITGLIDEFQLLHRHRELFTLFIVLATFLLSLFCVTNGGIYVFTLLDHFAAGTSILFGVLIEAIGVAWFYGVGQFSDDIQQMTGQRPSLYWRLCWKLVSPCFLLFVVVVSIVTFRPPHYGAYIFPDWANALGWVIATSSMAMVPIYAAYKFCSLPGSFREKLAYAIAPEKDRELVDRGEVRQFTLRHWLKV
T3 sequence (P28335 33-458): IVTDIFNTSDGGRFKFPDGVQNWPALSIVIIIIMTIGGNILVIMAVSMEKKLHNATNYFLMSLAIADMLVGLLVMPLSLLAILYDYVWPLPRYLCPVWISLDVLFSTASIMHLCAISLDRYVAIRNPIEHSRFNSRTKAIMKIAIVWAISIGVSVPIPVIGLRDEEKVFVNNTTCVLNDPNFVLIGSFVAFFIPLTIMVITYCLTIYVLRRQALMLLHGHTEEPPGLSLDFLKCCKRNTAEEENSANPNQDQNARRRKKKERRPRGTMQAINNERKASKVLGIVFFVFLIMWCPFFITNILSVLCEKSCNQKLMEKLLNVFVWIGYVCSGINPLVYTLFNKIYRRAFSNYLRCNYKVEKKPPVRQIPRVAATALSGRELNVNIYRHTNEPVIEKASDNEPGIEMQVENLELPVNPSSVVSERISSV
T10 sequence (P25100 whole entry): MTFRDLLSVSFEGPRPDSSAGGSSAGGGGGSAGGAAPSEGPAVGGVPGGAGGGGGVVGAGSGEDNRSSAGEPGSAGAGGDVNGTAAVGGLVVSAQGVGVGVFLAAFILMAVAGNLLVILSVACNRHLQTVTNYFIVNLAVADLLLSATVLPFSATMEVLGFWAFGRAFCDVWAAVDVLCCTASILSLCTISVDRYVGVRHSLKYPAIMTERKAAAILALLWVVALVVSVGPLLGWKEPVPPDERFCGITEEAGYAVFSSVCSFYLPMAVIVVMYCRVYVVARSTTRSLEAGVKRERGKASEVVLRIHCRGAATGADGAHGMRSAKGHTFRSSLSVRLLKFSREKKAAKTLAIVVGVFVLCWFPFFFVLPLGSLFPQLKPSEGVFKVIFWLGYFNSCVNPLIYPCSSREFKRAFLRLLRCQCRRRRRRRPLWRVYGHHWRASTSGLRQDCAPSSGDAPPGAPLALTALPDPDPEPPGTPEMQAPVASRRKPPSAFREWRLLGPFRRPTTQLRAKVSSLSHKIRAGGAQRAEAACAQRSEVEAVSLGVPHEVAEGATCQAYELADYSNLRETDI
T13 sequence (P13945 whole entry): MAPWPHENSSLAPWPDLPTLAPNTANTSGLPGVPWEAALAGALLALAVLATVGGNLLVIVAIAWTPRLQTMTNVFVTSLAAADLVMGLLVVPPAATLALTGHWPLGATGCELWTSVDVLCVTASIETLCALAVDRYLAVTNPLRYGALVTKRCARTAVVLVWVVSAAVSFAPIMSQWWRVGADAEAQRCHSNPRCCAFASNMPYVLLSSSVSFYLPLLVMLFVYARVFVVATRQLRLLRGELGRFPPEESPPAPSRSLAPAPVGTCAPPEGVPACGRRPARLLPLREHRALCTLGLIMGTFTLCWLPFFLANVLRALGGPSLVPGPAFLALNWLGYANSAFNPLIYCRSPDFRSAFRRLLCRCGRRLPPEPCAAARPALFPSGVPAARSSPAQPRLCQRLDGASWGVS
T5 sequence (P50406 whole entry): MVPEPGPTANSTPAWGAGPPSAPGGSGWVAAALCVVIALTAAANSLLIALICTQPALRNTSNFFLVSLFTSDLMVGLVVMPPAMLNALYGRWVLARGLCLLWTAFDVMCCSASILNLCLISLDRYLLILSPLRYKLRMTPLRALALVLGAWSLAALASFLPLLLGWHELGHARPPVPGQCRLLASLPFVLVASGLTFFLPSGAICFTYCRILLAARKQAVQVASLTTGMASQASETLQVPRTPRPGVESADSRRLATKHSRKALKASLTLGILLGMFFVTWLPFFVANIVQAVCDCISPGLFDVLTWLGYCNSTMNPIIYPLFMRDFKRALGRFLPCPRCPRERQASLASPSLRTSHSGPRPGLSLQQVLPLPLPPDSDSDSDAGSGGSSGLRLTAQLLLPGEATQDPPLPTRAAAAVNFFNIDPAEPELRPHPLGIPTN
T9 sequence (P35348 whole entry): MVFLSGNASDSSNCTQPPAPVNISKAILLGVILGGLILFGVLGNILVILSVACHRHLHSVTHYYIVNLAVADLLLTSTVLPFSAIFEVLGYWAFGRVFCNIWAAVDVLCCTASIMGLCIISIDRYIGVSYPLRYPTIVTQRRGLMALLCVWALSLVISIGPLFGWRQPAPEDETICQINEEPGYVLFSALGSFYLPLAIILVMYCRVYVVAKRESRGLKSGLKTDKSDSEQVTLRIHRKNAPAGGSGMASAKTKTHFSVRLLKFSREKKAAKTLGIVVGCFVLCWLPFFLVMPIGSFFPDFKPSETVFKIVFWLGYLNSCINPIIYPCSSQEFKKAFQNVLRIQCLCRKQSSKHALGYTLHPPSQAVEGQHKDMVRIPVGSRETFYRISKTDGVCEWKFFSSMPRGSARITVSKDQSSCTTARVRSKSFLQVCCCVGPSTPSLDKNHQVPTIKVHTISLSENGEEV
T15 sequence (P21917 whole entry): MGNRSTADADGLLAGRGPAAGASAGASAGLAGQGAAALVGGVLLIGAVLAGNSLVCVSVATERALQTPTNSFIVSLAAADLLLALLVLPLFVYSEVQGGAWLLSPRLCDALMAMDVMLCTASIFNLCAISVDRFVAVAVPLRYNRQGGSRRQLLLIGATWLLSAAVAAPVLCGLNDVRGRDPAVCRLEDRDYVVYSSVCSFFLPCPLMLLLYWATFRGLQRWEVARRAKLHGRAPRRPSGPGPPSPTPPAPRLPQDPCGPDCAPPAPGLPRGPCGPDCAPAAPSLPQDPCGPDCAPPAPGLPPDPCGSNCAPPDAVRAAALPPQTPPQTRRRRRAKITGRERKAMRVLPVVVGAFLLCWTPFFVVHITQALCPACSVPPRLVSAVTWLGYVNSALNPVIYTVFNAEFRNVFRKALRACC
T2 sequence (P28223 whole entry): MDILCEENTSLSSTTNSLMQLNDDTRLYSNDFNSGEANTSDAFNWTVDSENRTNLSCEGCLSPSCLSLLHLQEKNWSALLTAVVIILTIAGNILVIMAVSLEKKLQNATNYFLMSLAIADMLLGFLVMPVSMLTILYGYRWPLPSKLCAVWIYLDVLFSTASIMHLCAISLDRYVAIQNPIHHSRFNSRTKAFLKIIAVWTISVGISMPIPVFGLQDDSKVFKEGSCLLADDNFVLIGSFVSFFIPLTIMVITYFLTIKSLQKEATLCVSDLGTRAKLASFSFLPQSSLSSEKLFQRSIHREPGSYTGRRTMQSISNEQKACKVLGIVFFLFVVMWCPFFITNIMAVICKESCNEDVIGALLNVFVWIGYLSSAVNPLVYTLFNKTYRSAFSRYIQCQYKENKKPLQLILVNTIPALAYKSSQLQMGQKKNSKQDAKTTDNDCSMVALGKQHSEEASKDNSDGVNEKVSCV

With `O=C(O)CCc1ccc(O)c(O)c1` [DHCA, 3(3,4-dihydroxy-phenyl) propionic acid] the half-life ([1]; mouse) was 16.1 min, the “Binding activity, 5-HT1D (percentage)” value [2] was 11.7% and the “Binding activity, 5-HT2A (percentage)” value [3] was 18%. For the same compound, the “Binding activity, 5-HT2C (percentage)” value [4] was −9.9%, the “Binding activity, 5-HT3 (percentage)” value [5] was −11.7% and the “Binding activity, 5-HT6 (percentage)” value [6] was 24.2%. For the same compound, the “Binding activity, 5-HT7 (percentage)” value [7] was 4.2%, the “Binding activity, 5-hT1e (percentage)” value [8] was −1.7% and the “Binding activity, 5-hT5a (percentage)” value [9] was 4.2%. For the same compound, the “Binding activity, Alpha1A (percentage)” value [10] was 4%, the “Binding activity, Alpha1D (percentage)” value [11] was −15.4% and the “Binding activity, Alpha2B (percentage)” value [12] was −2.3%. For the same compound, the “Binding activity, BZP RBS (percentage)” value [13] was −5.2%, the “Binding activity, Beta2 (percentage)” value [14] was −7.6% and the “Binding activity, Beta3 (percentage)” value [15] was −15.8%. For the same compound, the “Binding activity, D2 (percentage)” value (D2 (dopamine receptor)) was −5.7%, the “Binding activity, D4 (percentage)” value (D4 (dopamine receptor)) was 1.9% and the “Binding activity, DAT (percentage)” value [16] was 34.5%. For the same compound, the “Binding activity, M3 (percentage)” value (M3 (muscarinic receptor)) was 9.4%, the “Binding activity, M4 (percentage)” value (M4 (muscarinic receptor)) was 3% and the “Binding activity, M5 (percentage)” value (M5 (muscarinic receptor)) was 21.2%. The “Binding activity, MOR (percentage)” value (MOR (µ-opioid receptor)) was −7.1% and the “Binding activity, NET (percentage)” value [17] was −16.4%.

For `COc1cc(-c2[o+]c3cc(O)cc(O)c3cc2O[C@@H]2O[C@H](CO)[C@@H](O)[C@H](O)[C@H]2O)cc(OC)c1O` [Mal-gluc], the “Brain homogenate stability, Half-life (mouse homogenate)” value [1] was 29.4 min, the “Binding activity, 5-HT1D (percentage)” value [2] was 54% and the Ki ([2]; secondary radioligand binding assay, read-out: calculated inhibitory constant (Ki), 5-HT1D) was greater than 10 µM. The “Binding activity, 5-HT2A (percentage)” value [3] was −10.5%, the “Binding activity, 5-HT2C (percentage)” value [4] was −6.9% and the “Binding activity, 5-HT3 (percentage)” value [5] was 74.1%. The Ki ([5]; secondary radioligand binding assay, read-out: calculated inhibitory constant (Ki), 5-HT3) was 4.3 µM, the “Binding activity, 5-HT6 (percentage)” value [6] was −18.5% and the “Binding activity, 5-HT7 (percentage)” value [7] was −13.5%. For the same compound, the “Binding activity, 5-hT1e (percentage)” value [8] was 10.3%, the “Binding activity, 5-hT5a (percentage)” value [9] was 5.2% and the “Binding activity, Alpha1A (percentage)” value [10] was −4.5%. For the same compound, the “Binding activity, Alpha1D (percentage)” value [11] was −1.3%, the “Binding activity, Alpha2B (percentage)” value [12] was −5.9% and the “Binding activity, BZP RBS (percentage)” value [13] was 5.4%. For the same compound, the “Binding activity, Beta2 (percentage)” value [14] was 1.9%, the “Binding activity, Beta3 (percentage)” value [15] was −17.7% and the “Binding activity, D2 (percentage)” value (D2 (dopamine receptor)) was 7.2%. The “Binding activity, D4 (percentage)” value (D4 (dopamine receptor)) was −2%, the “Binding activity, DAT (percentage)” value [16] was −18.2% and the “Binding activity, M3 (percentage)” value (M3 (muscarinic receptor)) was 23.6%. The “Binding activity, M4 (percentage)” value (M4 (muscarinic receptor)) was −4.6%, the “Binding activity, M5 (percentage)” value (M5 (muscarinic receptor)) was −10.2% and the “Binding activity, MOR (percentage)” value (MOR (µ-opioid receptor)) was −5%. The “Binding activity, NET (percentage)” value [17] was −9.4%.
